Source: patent publication US20090143279A1 (priority 2007, published 2009)
Where two headings read alike, the source gives them in different places.

Experiments:
cytochrome c = assay type: cell-based, mouse; conditions: for cyt c (composite Z-score): normalized score vs mock-treated (DMSO) wells
nuOXPHOS transcripts = assay type: cell-based, mouse; conditions: for nucOX (composite Z-score): normalized score vs mock-treated (DMSO) wells
mtOXPHOS transcripts = assay type: cell-based, mouse; conditions: for mitoOX (composite Z-score): normalized score vs mock-treated (DMSO) wells
OXPHOS gene expression = assay type: cell-based, mouse; conditions: for GE-HTS (composite Z-score): normalized score vs mock-treated (DMSO) wells
[1] = system: mitochondrial membrane potential; assay type: cell-based, mouse; conditions: for ΔΨm (composite Z-score): normalized score vs mock-treated (DMSO) wells
[2] = system: cellular dehydrogenase activity; conditions: for MTT (composite Z-score): normalized score vs mock-treated (DMSO) wells
C2C12 myotubes = conditions: for Viability (composite Z-score): normalized score vs mock-treated (DMSO) wells
reactive oxygen species = assay type: cell-based, mouse; conditions: for ROS (composite Z-score): normalized score vs mock-treated (DMSO) wells
[3] = composite Z-score vs mock-treated (DMSO) wells, Conc 20 μM
[4] = 20 μM, composite Z-score vs DMSO
[5] = composite Z-score vs DMSO wells, Conc 20 μM
[6] = composite Z-score vs DMSO, Conc 20 μM
[7] = normalized composite Z-score vs mock-treated (DMSO) wells, Conc 20 μM

C=C1C(=O)O[C@H]2C[C@@H]1C(OC(C)=O)C/C(C)=C/CC/C(C)=C/CC[C@@]2(C)O (some centres unmarked) [crassin acetate]
cyt c (cytochrome c; [3]): −1.840 | nucOX (nuOXPHOS transcripts; [3]): −0.685 | mitoOX (mtOXPHOS transcripts; [3]): −0.703 | GE-HTS (OXPHOS gene expression; [3]): −0.720 | ΔΨm [1, 3]: 0.374 | MTT [2, 3]: −1.220 | Viability (C2C12 myotubes; [3]): −2.757 | ROS (reactive oxygen species; [3]): −1.394

CC(C)(O)CC[C@@H](O)[C@](C)(O)[C@H]1CC[C@@]2(O)C3=CC(=O)[C@@H]4C[C@@H](O)[C@@H](O)C[C@]4(C)[C@H]3CC[C@]12C [crustecdysone]
cyt c (composite Z-score) (cytochrome c; Conc 20 μM): 0.468 | nucOX (composite Z-score) (nuOXPHOS transcripts; Conc 20 μM): 0.487 | mitoOX (composite Z-score) (mtOXPHOS transcripts; Conc 20 μM): 0.062 | GE-HTS (composite Z-score) (OXPHOS gene expression; Conc 20 μM): 0.354 | ΔΨm (composite Z-score) ([1]; Conc 20 μM): −0.721 | MTT (composite Z-score) ([2]; Conc 20 μM): −0.545 | Viability (composite Z-score) (C2C12 myotubes; Conc 20 μM): −0.458 | ROS (composite Z-score) (reactive oxygen species; Conc 20 μM): 0.657

NC1(C(=O)O)CCCC1 [cycloleucine]
cyt c (cytochrome c; [4]): 0.822 | nucOX (nuOXPHOS transcripts; [4]): −0.495 | mitoOX (mtOXPHOS transcripts; [4]): −1.397 | GE-HTS (OXPHOS gene expression; [4]): −0.839 | ΔΨm [1, 4]: −0.765 | MTT [2, 4]: −1.310 | Viability (C2C12 myotubes; [4]): −1.300 | ROS (reactive oxygen species; [4]): 0.024

CN(C)CCOC(=O)C(c1ccccc1)C1(O)CCCC1 (centres unmarked) [cyclopentolate]
cyt c (cytochrome c): 0.859 | cyt c (cytochrome c; [5]): −0.283 | nucOX (nuOXPHOS transcripts; [5]): 0.830 | mitoOX (mtOXPHOS transcripts; [5]): −0.037 | GE-HTS (OXPHOS gene expression; [5]): 0.556 | ΔΨm [1, 5]: −0.072 | MTT [2, 5]: −0.756 | Viability (C2C12 myotubes; [5]): −0.300 | ROS (reactive oxygen species; [5]): −0.406

CC(=O)C1=C(O)[C@@H]2[C@H]3c4c[nH]c5cccc(c45)C[C@H]3C(C)(C)N2C1=O [cyclopiazonic acid]
cyt c (cytochrome c; [6]): 0.033 | nucOX (nuOXPHOS transcripts; [6]): 0.163 | mitoOX (mtOXPHOS transcripts; [6]): 0.172 | GE-HTS (OXPHOS gene expression; [6]): 0.186 | ΔΨm [1, 6]: 0.863 | MTT [2, 6]: −1.107 | Viability (C2C12 myotubes; [6]): −1.392 | ROS (reactive oxygen species; [6]): −0.293

CO[C@H]1C[C@H](O[C@H]2CC[C@]3(C=O)[C@H]4CC[C@]5(C)[C@@H](C6=CC(=O)OC6)CC[C@]5(O)[C@@H]4CC[C@]3(O)C2)O[C@H](C)[C@H]1O [cymarin]
cyt c (composite Z-score) (cytochrome c; Conc 20 μM): 0.356 | nucOX (composite Z-score) (nuOXPHOS transcripts; Conc 20 μM): −0.412 | mitoOX (composite Z-score) (mtOXPHOS transcripts; Conc 20 μM): −0.464 | GE-HTS (composite Z-score) (OXPHOS gene expression; Conc 20 μM): −0.473 | ΔΨm (composite Z-score) ([1]; Conc 20 μM): −0.996 | MTT (composite Z-score) ([2]; Conc 20 μM): −1.849 | Viability (composite Z-score) (C2C12 myotubes; Conc 20 μM): −1.155 | ROS (composite Z-score) (reactive oxygen species; Conc 20 μM): 0.695

CC(=O)[C@@]1(O)CC[C@H]2[C@@H]3C=C(Cl)C4=CC(=O)[C@@H]5C[C@@H]5[C@]4(C)[C@H]3CC[C@@]21C [cyproterone]
cyt c (cytochrome c; [6]): 0.548 | nucOX (nuOXPHOS transcripts; [6]): −0.461 | mitoOX (mtOXPHOS transcripts; [6]): −0.446 | GE-HTS (OXPHOS gene expression; [6]): −0.490 | ΔΨm [1, 6]: −0.962 | MTT [2, 6]: 0.079 | Viability (C2C12 myotubes; [6]): 0.014 | ROS (reactive oxygen species; [6]): 1.155

CC(=O)O[C@H]1C[C@@H](OC(C)=O)C(C)(C)C2CC(=O)[C@]3(C)C(CC[C@@]4(C)[C@H](C(=O)O)OC(=O)C5OC543)[C@]21C (some centres unmarked) [deacetoxy(7)-7-oxokhivorinic acid]
cyt c (cytochrome c; [7]): 0.816 | nucOX (nuOXPHOS transcripts; [7]): −0.937 | mitoOX (mtOXPHOS transcripts; [7]): −0.664 | GE-HTS (OXPHOS gene expression; [7]): −0.919 | ΔΨm [1, 7]: −0.539 | MTT [2, 7]: −1.282 | Viability (C2C12 myotubes; [7]): −0.174 | ROS (reactive oxygen species; [7]): 2.352

CC1(C)C=CC(=O)[C@@]2(C)C1CC(=O)[C@]1(C)C2CC[C@@]2(C)[C@H](c3ccoc3)OC(=O)C3OC321 (some centres unmarked) [deacetoxy-7-oxisogedunin]
cyt c (composite Z-score) (cytochrome c; Conc 20 μM): 0.153 | nucOX (composite Z-score) (nuOXPHOS transcripts; Conc 20 μM): 0.821 | mitoOX (composite Z-score) (mtOXPHOS transcripts; Conc 20 μM): 0.694 | GE-HTS (composite Z-score) (OXPHOS gene expression; Conc 20 μM): 0.816 | ΔΨm (composite Z-score) ([1]; Conc 20 μM): 0.332 | MTT (composite Z-score) ([2]; Conc 20 μM): −0.791 | Viability (composite Z-score) (C2C12 myotubes; Conc 20 μM): −0.301 | ROS (composite Z-score) (reactive oxygen species; Conc 20 μM): 0.898

CC1(C)C(=O)C=C[C@]2(C)[C@H]3CC[C@@]4(C)[C@H](c5ccoc5)OC(=O)[C@H]5O[C@]54[C@]3(C)C(=O)C[C@@H]12 [deacetoxy-7-oxogedunin]
cyt c (cytochrome c; [3]): 0.047 | nucOX (nuOXPHOS transcripts; [3]): −0.287 | mitoOX (mtOXPHOS transcripts; [3]): −0.632 | GE-HTS (OXPHOS gene expression; [3]): −0.407 | ΔΨm [1, 3]: 1.322 | MTT [2, 3]: −0.029 | Viability (C2C12 myotubes; [3]): 0.089 | ROS (reactive oxygen species; [3]): −0.301

CC1(C)C(=O)C=C[C@]2(C)[C@H]3CC[C@@]4(C)[C@H](c5ccoc5)OC(=O)[C@H]5O[C@]54[C@]3(C)[C@H](O)C[C@@H]12 [deacetylgedunin]
cyt c (cytochrome c; [3]): −0.489 | nucOX (nuOXPHOS transcripts; [3]): −0.244 | mitoOX (mtOXPHOS transcripts; [3]): −0.484 | GE-HTS (OXPHOS gene expression; [3]): −0.322 | ΔΨm [1, 3]: 0.349 | MTT [2, 3]: −0.958 | Viability (C2C12 myotubes; [3]): −0.032 | ROS (reactive oxygen species; [3]): −0.966
